Measured values published in US9611249B2, “1H-indazole-3-carboxamide compounds as glycogen synthase kinase 3 beta inhibitors” (AZIENDE CHIMICHE RIUNITE ANGELINI FRANCESCO A.C.R.A.F. …, priority 2012, dated 2017).

Columns and labels:
Assay type in all cases: biochemical
Conditions in all cases: 10 μM in duplicate, read-out: % inhibition of control values
c-Met kinase (h) = c-Met kinase (h) (Homo sapiens (Human), UniProt P08581); assay: Kinase selectivity panel: c-Met kinase (h)
Method: (§1) (a) Compounds 1 and 2 were tested against a panel of 60 kinases in order to assess their selectivity. The assays were chosen taking into consideration the diversity of assay families.
(§2) Tested kinases were representative of following kinase sub-families: • protein-serine/threonine kinases; • protein-tyrosine kinases; • other kinases; and • atypical kinases.
(§3) Human recombinant kinases were incubated in the presence of specific peptide substrates plus ATP for different times (10, 15, 30, 60 or 90 minutes) at 22° C. Phosphorylated substrate was detected by LANCE or HTRF technology (CISBIO, MA, USA). The compounds were tested at 10 μM in duplicate.
(§4) The results are expressed as a percentage of inhibition of control specific activity obtained in the presence of the test compounds and are reported in the following Table 5.
(§5) (b) Compounds 3, 8, 29 and 31 were tested against the same panel of 60 kinases under the same conditions described above for compounds 1 and 2.
(§6) The results are expressed as a percent of inhibition of control specific activity obtained in the presence of the test compounds and are reported in the following Table 6.

EphA4 kinase (h) = EphA4 kinase (h) (Homo sapiens (Human), UniProt P54764); assay: Kinase selectivity panel: EphA4 kinase (h)
Method: as §1, §2, §3, §4, §5, §6

EphB2 kinase (h) = EphB2 kinase (h) (Homo sapiens (Human), UniProt P29323); assay: Kinase selectivity panel: EphB2 kinase (h)
Method: as §1, §2, §3, §4, §5, §6

FGFR1 kinase (h) = FGFR1 kinase (h) (Homo sapiens (Human), UniProt P11362); assay: Kinase selectivity panel: FGFR1 kinase (h)
Method: as §1, §2, §3, §4, §5, §6

IGF1R kinase (h) = IGF1R kinase (h) (Homo sapiens (Human), UniProt P08069); assay: Kinase selectivity panel: IGF1R kinase (h)
Method: as §1, §2, §3, §4, §5, §6

IRK (h) (InsR) = IRK (h) (InsR) (Homo sapiens (Human), UniProt P06213); assay: Kinase selectivity panel: IRK (h) (InsR)
Method: as §1, §2, §3, §4, §5, §6

Ret kinase (h) = Ret kinase (h) (Homo sapiens (Human), UniProt P07949); assay: Kinase selectivity panel: Ret kinase (h)
Method: as §1, §2, §3, §4, §5, §6

TRKA (h) = TRKA (h) (Homo sapiens (Human), UniProt P04629); assay: Kinase selectivity panel: TRKA (h)
Method: as §1, §2, §3, §4, §5, §6

Abl kinase (h) = Abl kinase (h) (Homo sapiens (Human), UniProt P00519); assay: Kinase selectivity panel: Abl kinase (h)
Method: as §1, §2, §3, §4, §5, §6

JAK1 (h) = JAK1 (h) (Homo sapiens (Human), UniProt P23458); assay: Kinase selectivity panel: JAK1 (h)
Method: as §1, §2, §3, §4, §5, §6

JAK2 (h) = JAK2 (h) (Homo sapiens (Human), UniProt O60674); assay: Kinase selectivity panel: JAK2 (h)
Method: as §1, §2, §3, §4, §5, §6

Fyn kinase (h) = Fyn kinase (h) (Homo sapiens (Human), UniProt P06241); assay: Kinase selectivity panel: Fyn kinase (h)
Method: as §1, §2, §3, §4, §5, §6

PCTAIRE1 kinase (h) = PCTAIRE1 kinase (h) (Homo sapiens (Human), UniProt Q00536); assay: Kinase selectivity panel: PCTAIRE1 kinase (h)
Method: as §1, §2, §3, §4, §5, §6

CDC2/CDK1 (h) (cycB) = CDC2/CDK1 (h) (cycB) (Homo sapiens (Human), UniProt P06493); assay: Kinase selectivity panel: CDC2/CDK1 (h) (cycB)
Method: as §1, §2, §3, §4, §5, §6

CDK2 (h) (cycA) = CDK2 (h) (cycA) (Homo sapiens (Human), UniProt P24941); assay: Kinase selectivity panel: CDK2 (h) (cycA)
Method: as §1, §2, §3, §4, §5, §6

CDK5/p35 (h) = CDK5/p35 (h) (Homo sapiens (Human), UniProt Q00535); assay: Kinase selectivity panel: CDK5/p35 (h)
Method: as §1, §2, §3, §4, §5, §6

p38alpha kinase (h) = p38alpha kinase (h) (Homo sapiens (Human), UniProt Q16539); assay: Kinase selectivity panel: p38alpha kinase (h)
Method: as §1, §2, §3, §4, §5, §6

CaMK4 (h) = CaMK4 (h) (Homo sapiens (Human), UniProt Q16566); assay: Kinase selectivity panel: CaMK4 (h)
Method: as §1, §2, §3, §4, §5, §6

Pim2 kinase (h) = Pim2 kinase (h) (Homo sapiens (Human), UniProt Q9P1W9); assay: Kinase selectivity panel: Pim2 kinase (h)
Method: as §1, §2, §3, §4, §5, §6

MNK2 (h) = MNK2 (h) (Homo sapiens (Human), UniProt Q9HBH9); assay: Kinase selectivity panel: MNK2 (h)
Method: as §1, §2, §3, §4, §5, §6

Akt1/PKBalpha (h) = Akt1/PKBalpha (h) (Homo sapiens (Human), UniProt P31749); assay: Kinase selectivity panel: Akt1/PKBalpha (h)
Method: as §1, §2, §3, §4, §5, §6

PDK1 (h) = PDK1 (h) (Homo sapiens (Human), UniProt O15530); assay: Kinase selectivity panel: PDK1 (h)
Method: as §1, §2, §3, §4, §5, §6

RSK2 (h) = RSK2 (h) (Homo sapiens (Human), UniProt P51812); assay: Kinase selectivity panel: RSK2 (h)
Method: as §1, §2, §3, §4, §5, §6

PKCalpha (h) = PKCalpha (h) (Homo sapiens (Human), UniProt P17252); assay: Kinase selectivity panel: PKCalpha (h)
Method: as §1, §2, §3, §4, §5, §6

PKCbeta 1 (h) = PKCbeta 1 (h) (Homo sapiens (Human), UniProt P05771); assay: Kinase selectivity panel: PKCbeta 1 (h)
Method: as §1, §2, §3, §4, §5, §6

CK1alpha (h) = CK1alpha (h) (Homo sapiens (Human), UniProt P48729); assay: Kinase selectivity panel: CK1alpha (h)
Method: as §1, §2, §3, §4, §5, §6

PAK1 (h) = PAK1 (h) (Homo sapiens (Human), UniProt Q13153); assay: Kinase selectivity panel: PAK1 (h)
Method: as §1, §2, §3, §4, §5, §6

HGK (h) (MAP4K4) = HGK (h) (MAP4K4) (Homo sapiens (Human), UniProt O95819); assay: Kinase selectivity panel: HGK (h) (MAP4K4)
Method: as §1, §2, §3, §4, §5, §6

TAOK2 (TAO1) (h) = TAOK2 (TAO1) (h) (Homo sapiens (Human), UniProt Q9UL54); assay: Kinase selectivity panel: TAOK2 (TAO1) (h)
Method: as §1, §2, §3, §4, §5, §6

DLK1 (h) (MAP3K12) = DLK1 (h) (MAP3K12) (Homo sapiens (Human), UniProt Q12852); assay: Kinase selectivity panel: DLK1 (h) (MAP3K12)
Method: as §1, §2, §3, §4, §5, §6

IKKepsilon (h) (IKBKE) = IKKepsilon (h) (IKBKE) (Homo sapiens (Human), UniProt Q14164); assay: Kinase selectivity panel: IKKepsilon (h) (IKBKE)
Method: as §1, §2, §3, §4, §5, §6

MYT1 kinase (h) = MYT1 kinase (h) (Homo sapiens (Human), UniProt Q99640); assay: Kinase selectivity panel: MYT1 kinase (h)
Method: as §1, §2, §3, §4, §5, §6

AurB/Aur1 kinase (h) = AurB/Aur1 kinase (h) (Homo sapiens (Human), UniProt Q96GD4); assay: Kinase selectivity panel: AurB/Aur1 kinase (h)
Method: as §1, §2, §3, §4, §5, §6

IGF1R kinase (h), sequence (P08069 31-1367): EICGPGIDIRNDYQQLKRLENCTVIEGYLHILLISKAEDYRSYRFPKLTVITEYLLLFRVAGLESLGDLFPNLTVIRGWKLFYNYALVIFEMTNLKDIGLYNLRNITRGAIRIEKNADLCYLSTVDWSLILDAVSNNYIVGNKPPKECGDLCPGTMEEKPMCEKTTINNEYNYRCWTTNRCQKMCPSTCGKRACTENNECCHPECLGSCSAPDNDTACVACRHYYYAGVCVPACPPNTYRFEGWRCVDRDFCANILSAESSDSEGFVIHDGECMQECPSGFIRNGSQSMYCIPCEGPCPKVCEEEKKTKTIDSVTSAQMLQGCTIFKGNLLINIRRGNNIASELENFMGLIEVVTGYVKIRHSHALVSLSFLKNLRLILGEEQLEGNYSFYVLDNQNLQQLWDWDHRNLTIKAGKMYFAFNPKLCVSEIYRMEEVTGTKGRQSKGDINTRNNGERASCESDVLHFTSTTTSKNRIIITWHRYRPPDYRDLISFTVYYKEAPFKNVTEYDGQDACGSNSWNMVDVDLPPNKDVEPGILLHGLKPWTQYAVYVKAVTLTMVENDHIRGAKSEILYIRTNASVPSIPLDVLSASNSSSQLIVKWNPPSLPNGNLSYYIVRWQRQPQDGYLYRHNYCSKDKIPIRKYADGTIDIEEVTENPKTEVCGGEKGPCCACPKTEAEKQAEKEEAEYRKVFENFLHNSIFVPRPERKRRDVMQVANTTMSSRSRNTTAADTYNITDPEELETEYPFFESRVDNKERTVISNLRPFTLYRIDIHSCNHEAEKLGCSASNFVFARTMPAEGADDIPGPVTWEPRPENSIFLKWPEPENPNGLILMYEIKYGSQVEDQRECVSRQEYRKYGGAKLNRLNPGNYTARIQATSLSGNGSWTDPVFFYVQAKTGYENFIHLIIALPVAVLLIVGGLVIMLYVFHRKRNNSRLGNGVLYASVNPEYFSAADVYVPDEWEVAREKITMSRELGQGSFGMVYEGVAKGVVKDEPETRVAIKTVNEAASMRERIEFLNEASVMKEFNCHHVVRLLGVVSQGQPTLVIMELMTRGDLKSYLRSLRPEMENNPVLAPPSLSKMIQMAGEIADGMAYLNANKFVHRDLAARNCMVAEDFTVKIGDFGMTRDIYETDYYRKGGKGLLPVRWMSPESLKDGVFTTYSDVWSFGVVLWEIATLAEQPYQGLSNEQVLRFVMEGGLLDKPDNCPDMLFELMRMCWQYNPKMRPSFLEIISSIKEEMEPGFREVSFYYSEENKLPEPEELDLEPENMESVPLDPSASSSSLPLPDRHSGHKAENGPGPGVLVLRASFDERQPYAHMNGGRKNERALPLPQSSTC
DLK1 (h) (MAP3K12), sequence (Q12852 whole entry): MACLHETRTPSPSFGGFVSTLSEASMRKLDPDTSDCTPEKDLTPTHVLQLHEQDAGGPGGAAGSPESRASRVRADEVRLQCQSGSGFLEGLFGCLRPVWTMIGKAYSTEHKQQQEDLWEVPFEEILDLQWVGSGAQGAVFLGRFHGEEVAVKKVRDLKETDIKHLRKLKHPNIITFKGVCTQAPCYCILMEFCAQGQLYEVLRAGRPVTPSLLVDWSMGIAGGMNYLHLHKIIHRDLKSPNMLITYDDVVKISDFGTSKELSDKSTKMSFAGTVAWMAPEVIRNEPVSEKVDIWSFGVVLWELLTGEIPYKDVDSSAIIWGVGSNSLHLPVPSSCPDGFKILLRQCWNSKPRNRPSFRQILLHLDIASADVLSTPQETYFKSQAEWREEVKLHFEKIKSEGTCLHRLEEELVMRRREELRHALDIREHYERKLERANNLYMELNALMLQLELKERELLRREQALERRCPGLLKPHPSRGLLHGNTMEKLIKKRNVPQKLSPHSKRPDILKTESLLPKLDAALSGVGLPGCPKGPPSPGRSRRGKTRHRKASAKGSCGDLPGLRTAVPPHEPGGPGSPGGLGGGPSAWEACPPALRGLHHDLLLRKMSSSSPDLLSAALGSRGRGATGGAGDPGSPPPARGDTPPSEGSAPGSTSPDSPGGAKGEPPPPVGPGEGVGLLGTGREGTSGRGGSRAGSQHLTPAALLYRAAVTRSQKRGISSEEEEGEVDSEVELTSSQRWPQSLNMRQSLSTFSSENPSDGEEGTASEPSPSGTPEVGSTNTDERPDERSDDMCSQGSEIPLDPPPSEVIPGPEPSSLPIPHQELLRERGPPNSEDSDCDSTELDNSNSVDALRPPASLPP
EphA4 kinase (h), sequence (P54764 20-986): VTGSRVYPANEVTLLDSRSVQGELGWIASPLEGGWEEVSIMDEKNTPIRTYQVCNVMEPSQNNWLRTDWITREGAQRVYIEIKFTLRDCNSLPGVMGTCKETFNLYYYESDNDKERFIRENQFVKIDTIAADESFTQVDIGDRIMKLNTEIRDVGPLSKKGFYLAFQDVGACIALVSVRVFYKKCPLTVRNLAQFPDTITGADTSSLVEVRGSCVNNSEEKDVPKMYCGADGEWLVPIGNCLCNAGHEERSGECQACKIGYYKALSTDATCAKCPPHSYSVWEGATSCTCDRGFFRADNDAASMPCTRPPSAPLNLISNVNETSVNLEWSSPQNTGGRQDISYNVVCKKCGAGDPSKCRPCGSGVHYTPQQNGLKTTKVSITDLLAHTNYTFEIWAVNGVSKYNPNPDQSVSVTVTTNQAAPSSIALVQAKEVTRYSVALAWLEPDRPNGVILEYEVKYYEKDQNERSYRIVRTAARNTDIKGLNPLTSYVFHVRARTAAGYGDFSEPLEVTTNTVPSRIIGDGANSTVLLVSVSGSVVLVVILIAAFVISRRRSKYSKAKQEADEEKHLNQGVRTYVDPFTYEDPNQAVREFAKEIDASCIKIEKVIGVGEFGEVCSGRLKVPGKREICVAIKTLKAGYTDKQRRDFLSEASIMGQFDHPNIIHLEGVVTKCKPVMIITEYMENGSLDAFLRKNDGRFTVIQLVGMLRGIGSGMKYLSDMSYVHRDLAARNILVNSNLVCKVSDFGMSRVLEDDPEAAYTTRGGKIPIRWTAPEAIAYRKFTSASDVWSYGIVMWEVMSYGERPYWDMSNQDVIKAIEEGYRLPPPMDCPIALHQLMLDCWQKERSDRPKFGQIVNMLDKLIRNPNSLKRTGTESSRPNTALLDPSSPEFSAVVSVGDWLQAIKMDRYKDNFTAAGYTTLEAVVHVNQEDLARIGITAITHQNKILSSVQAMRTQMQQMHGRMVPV
Pim2 kinase (h), sequence (Q9P1W9 whole entry): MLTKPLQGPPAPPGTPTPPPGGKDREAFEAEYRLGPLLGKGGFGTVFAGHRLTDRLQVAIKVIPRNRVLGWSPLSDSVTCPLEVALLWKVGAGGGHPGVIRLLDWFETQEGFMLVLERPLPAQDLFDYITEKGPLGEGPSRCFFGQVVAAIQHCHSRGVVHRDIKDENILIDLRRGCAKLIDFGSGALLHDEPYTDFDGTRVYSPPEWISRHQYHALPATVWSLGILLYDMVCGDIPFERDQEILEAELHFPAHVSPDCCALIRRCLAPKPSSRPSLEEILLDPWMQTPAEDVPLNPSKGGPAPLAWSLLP
MYT1 kinase (h), sequence (Q99640 whole entry): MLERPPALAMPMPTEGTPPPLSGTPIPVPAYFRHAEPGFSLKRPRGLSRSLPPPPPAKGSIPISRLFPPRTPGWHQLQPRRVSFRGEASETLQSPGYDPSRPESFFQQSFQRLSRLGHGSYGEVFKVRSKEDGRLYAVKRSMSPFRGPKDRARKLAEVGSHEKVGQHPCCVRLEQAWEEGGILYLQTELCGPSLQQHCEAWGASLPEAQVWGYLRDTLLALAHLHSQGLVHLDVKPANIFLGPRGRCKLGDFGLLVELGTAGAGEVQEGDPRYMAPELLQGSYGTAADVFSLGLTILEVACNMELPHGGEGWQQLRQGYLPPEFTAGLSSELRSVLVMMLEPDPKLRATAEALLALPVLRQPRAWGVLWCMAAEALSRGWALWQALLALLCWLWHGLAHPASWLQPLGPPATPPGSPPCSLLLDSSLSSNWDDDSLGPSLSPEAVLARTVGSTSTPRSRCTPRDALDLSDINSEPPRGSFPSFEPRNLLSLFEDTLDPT
RSK2 (h), sequence (P51812 whole entry): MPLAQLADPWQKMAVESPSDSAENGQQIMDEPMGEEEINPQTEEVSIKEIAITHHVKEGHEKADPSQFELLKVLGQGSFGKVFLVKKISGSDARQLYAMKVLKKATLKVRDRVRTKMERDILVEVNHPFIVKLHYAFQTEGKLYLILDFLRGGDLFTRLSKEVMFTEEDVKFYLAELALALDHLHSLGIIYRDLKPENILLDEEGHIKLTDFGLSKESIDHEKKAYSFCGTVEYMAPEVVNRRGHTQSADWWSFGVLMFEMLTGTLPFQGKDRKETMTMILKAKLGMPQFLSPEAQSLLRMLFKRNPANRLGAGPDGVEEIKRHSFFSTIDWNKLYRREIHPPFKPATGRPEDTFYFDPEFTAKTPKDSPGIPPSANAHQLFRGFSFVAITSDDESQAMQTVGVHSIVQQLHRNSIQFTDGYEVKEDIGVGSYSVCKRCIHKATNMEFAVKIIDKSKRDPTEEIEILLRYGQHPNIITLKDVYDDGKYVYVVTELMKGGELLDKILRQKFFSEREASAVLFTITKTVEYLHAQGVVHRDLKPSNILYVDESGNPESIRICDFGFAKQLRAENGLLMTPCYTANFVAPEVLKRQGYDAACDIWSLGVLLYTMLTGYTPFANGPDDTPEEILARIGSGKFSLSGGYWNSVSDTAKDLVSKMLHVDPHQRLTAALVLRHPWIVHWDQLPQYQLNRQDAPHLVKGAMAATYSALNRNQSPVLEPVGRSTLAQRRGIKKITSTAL
p38alpha kinase (h), sequence (Q16539 whole entry): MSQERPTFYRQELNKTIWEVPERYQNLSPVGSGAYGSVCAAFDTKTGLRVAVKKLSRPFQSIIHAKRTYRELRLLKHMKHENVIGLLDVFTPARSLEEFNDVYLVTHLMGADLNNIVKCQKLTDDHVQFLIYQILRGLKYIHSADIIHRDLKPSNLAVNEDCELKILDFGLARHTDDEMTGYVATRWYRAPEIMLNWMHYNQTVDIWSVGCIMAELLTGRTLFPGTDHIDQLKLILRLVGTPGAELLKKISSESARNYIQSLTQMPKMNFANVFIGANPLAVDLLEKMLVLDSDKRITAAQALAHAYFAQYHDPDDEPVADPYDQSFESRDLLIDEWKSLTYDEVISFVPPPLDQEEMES

inhibition at 10 µM (c-Met kinase (h)): 0%
inhibition at 10 µM (EphA4 kinase (h)): 0%
inhibition at 10 µM (EphB2 kinase (h)): 0%
inhibition at 10 µM (FGFR1 kinase (h)): 0%
inhibition at 10 µM (IGF1R kinase (h)): 0%
inhibition at 10 µM (IRK (h) (InsR)): 0%
inhibition at 10 µM (Ret kinase (h)): 0%
inhibition at 10 µM (TRKA (h)): 0%
inhibition at 10 µM (Abl kinase (h)): 0%
inhibition at 10 µM (JAK1 (h)): 4%
inhibition at 10 µM (JAK2 (h)): 0%
inhibition at 10 µM (Fyn kinase (h)): 0%
inhibition at 10 µM (PCTAIRE1 kinase (h)): 0%
inhibition at 10 µM (CDC2/CDK1 (h) (cycB)): 8%
inhibition at 10 µM (CDK2 (h) (cycA)): 21%
inhibition at 10 µM (CDK5/p35 (h)): 9%
inhibition at 10 µM (p38alpha kinase (h)): 0%
inhibition at 10 µM (CaMK4 (h)): 15%
inhibition at 10 µM (Pim2 kinase (h)): 0%
inhibition at 10 µM (MNK2 (h)): 3%
inhibition at 10 µM (Akt1/PKBalpha (h)): 0%
inhibition at 10 µM (PDK1 (h)): 0%
inhibition at 10 µM (RSK2 (h)): 4%
inhibition at 10 µM (PKCalpha (h)): 5%
inhibition at 10 µM (PKCbeta 1 (h)): 0%
inhibition at 10 µM (CK1alpha (h)): 0%
inhibition at 10 µM (PAK1 (h)): 0%
inhibition at 10 µM (HGK (h) (MAP4K4)): 3%
inhibition at 10 µM (TAOK2 (TAO1) (h)): 0%
inhibition at 10 µM (DLK1 (h) (MAP3K12)): 0%
inhibition at 10 µM (IKKepsilon (h) (IKBKE)): 0%
inhibition at 10 µM (MYT1 kinase (h)): 2%
inhibition at 10 µM (AurB/Aur1 kinase (h)): 0%
Structure (SMILES): COc1ccc2[nH]nc(C(=O)NCC3CCN(CCC(=O)O)CC3)c2c1 [Compound 3]
